Measurements taken from the NIST ThermoML archive (doi:10.1021/je600559q).

Experiments:
[1] = refractive index (Na D-line) (dimensionless); details: 293.1 K; 101.33 kPa; Liquid; Standard Abbe refractometry
[2] = Liquid

CC1CCCCC1O (configuration not stated) [2-methylcyclohexanol]
Details | refractive index
[1] | 1.46313

[2]
Details | vapor or sublimation pressure [kPa]
361.23 K | 5.394
362.23 K | 5.668
363.13 K | 5.919
365.7 K | 6.693
367.68 K | 7.345
369.92 K | 8.152
371.63 K | 8.817
373.16 K | 9.448
375.31 K | 10.4
377.78 K | 11.58
380.39 K | 12.94
383.11 K | 14.52
385.95 K | 16.32
386.1 K | 16.42
389.56 K | 18.86
393.07 K | 21.65
395.88 K | 24.1
398.52 K | 26.6
402.67 K | 30.99
406.67 K | 35.73
410.73 K | 41.11
414 K | 45.9
418.26 K | 52.85
424.63 K | 64.66
439.57 K | 100.47

CC(=O)OC1CCCCC1C (configuration not stated) [2-methylcyclohexyl acetate]
Details | refractive index
[1] | 1.43896

[2]
Details | vapor or sublimation pressure [kPa]
368.01 K | 5.32
369.86 K | 5.758
371.87 K | 6.261
373.83 K | 6.787
376.56 K | 7.594
379.93 K | 8.675
383.36 K | 9.912
386.65 K | 11.22
391.27 K | 13.32
393.39 K | 14.38
394.15 K | 14.77
398.42 K | 17.2
401.6 K | 19.19
403.3 K | 20.34
405.73 K | 22.08
410.71 K | 26.01
415.57 K | 30.39
418.74 K | 33.54
421.2 K | 36.16
423.84 K | 39.17
426.54 K | 42.45
429.41 K | 46.21
433.2 K | 51.55
440.4 K | 63.09
458 K | 100.13
